Values joined by “and” are separate entries in the source; they are usually repeats but may differ in a detail not shown here. Equal values may be shown once. Toxic doses and inconclusive results are not listed.
Test system: L1210 leukemia ip in BDF1 mice, survival T/C
Assay: NCI In Vivo Anticancer Drug Screen. Data for tumor model L1210 Leukemia (intraperitoneal) in B6D2F1 (BDF1) mice
Conditions: endpoint: mean survival time, higher = longer survival
Outline: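 Transplanted-tumor mice were given test agent; controls received vehicle only. Survival readings from the two groups were divided (treated over control).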

[1] = dose: 100.0 mg/kg/injection, schedule: Q01DX001 (ip), vehicle: saline
[2] = dose: 200.0 mg/kg/injection, schedule: Q01DX001 (ip), vehicle: saline
[3] = dose: 400.0 mg/kg/injection, schedule: Q01DX001 (ip), vehicle: saline
[4] = dose: 12.5 mg/kg/injection, schedule: Q01DX009 (ip), vehicle: saline

Q: How did the T/C (dose: 100.0 mg/kg/injection, schedule: Q04DX003 (ip), vehicle: Klucel (hydroxypropylcellulose) (HPC)) turn out when `CCCCCCC/C=C/c1c(C)[nH]c2ccccc2c1=O` was run?
A: 96 % of control

Q: And the T/C (dose: 200.0 mg/kg/injection, schedule: Q04DX003 (ip), vehicle: Klucel (hydroxypropylcellulose) (HPC))?
A: 93 % of control

Q: And the T/C (dose: 400.0 mg/kg/injection, schedule: Q04DX003 (ip), vehicle: Klucel (hydroxypropylcellulose) (HPC))?
A: 89 % of control

Q: What does the source list for `CCCC/C=C/C(C)O` (stereo not drawn)?
A: T/C (dose: 50.0 mg/kg/injection, schedule: Q01DX009 (ip), vehicle: saline with Tween-80): 101 % of control; T/C (dose: 100.0 mg/kg/injection, schedule: Q01DX009 (ip), vehicle: saline with Tween-80): 105 % of control; T/C (dose: 200.0 mg/kg/injection, schedule: Q01DX009 (ip), vehicle: saline with Tween-80): 97 % of control

Q: Which T/C [1] does the source give for `O=[N+]([O-])c1ccccc1SSSc1ccccc1[N+](=O)[O-]` here?
A: 89 % of control

Q: What about the T/C [2] of the same molecule?
A: 93 % of control

Q: What about the T/C [3] of the same molecule?
A: 101 % of control

Q: Which results are given for `O=C(O)C(=C/c1ccccc1)/C(=C\c1ccccc1)C(=O)O`?
A: T/C [1]: 103 % of control; T/C (dose: 100.0 mg/kg/injection, schedule: Q01DX009 (ip), vehicle: saline): 89 % of control; T/C [2]: 105 % of control; T/C (dose: 200.0 mg/kg/injection, schedule: Q01DX009 (ip), vehicle: saline): 93 % of control; T/C [3]: 97 % of control; T/C (dose: 400.0 mg/kg/injection, schedule: Q01DX009 (ip), vehicle: saline): 90 % of control

Q: For `OCC1C2CCC(CC2)C1CO` (stereo not drawn), which T/C [4] is on record?
A: 102 % of control

Q: What about the T/C (dose: 12.5 mg/kg/injection, schedule: Q04DX003 (ip), vehicle: saline with Tween-80) of the same molecule?
A: 97 % of control

Q: What about the T/C (dose: 25.0 mg/kg/injection, schedule: Q01DX009 (ip), vehicle: saline) of the same molecule?
A: 106 % of control

Q: What about the T/C (dose: 25.0 mg/kg/injection, schedule: Q04DX003 (ip), vehicle: saline with Tween-80) of the same molecule?
A: 94 % of control

Q: And the T/C (dose: 50.0 mg/kg/injection, schedule: Q04DX003 (ip), vehicle: saline with Tween-80)?
A: 102 % of control

Q: And the T/C (dose: 100.0 mg/kg/injection, schedule: Q04DX003 (ip), vehicle: saline with Tween-80)?
A: 96 % of control

Q: And the T/C (dose: 200.0 mg/kg/injection, schedule: Q04DX003 (ip), vehicle: saline with Tween-80)?
A: 93 % of control

Q: And the T/C (dose: 400.0 mg/kg/injection, schedule: Q04DX003 (ip), vehicle: saline with Tween-80)?
A: 102 % of control

Q: With `CC1=CC(C)=Nc2ccc(Cl)cc2N1` as the molecule, how does the T/C (dose: 100.0 mg/kg/injection, schedule: Q04DX003 (ip), vehicle: acetone) read?
A: 97 % of control

Q: What about the T/C (dose: 200.0 mg/kg/injection, schedule: Q04DX003 (ip), vehicle: acetone) of the same molecule?
A: 101 % of control

Q: And the T/C (dose: 400.0 mg/kg/injection, schedule: Q04DX003 (ip), vehicle: acetone)?
A: 92 % of control

Q: With `CSc1ccc2c(c1)N(CCCN(C)C)c1ccccc1S2` as the molecule, how does the T/C (dose: 0.78 mg/kg/injection, schedule: Q04DX003 (ip), vehicle: saline) read?
A: 98 % of control and 99 % of control

Q: And the T/C (dose: 1.56 mg/kg/injection, schedule: Q04DX003 (ip), vehicle: saline)?
A: 103 % of control and 107 % of control

Q: What about the T/C (dose: 3.12 mg/kg/injection, schedule: Q01DX009 (ip), vehicle: saline) of the same molecule?
A: 103 % of control

Q: And the T/C (dose: 3.12 mg/kg/injection, schedule: Q04DX003 (ip), vehicle: saline)?
A: 98 % of control and 102 % of control

Q: And the T/C (dose: 6.25 mg/kg/injection, schedule: Q01DX009 (ip), vehicle: saline)?
A: 120 % of control

Q: And the T/C (dose: 6.25 mg/kg/injection, schedule: Q04DX003 (ip), vehicle: saline)?
A: 101 % of control and 107 % of control

Q: What about the T/C [4] of the same molecule?
A: 122 % of control

Q: And the T/C (dose: 12.5 mg/kg/injection, schedule: Q04DX003 (ip), vehicle: saline)?
A: 104 % of control

Q: What about the T/C (dose: 25.0 mg/kg/injection, schedule: Q04DX003 (ip), vehicle: saline) of the same molecule?
A: 109 % of control

Q: How did the T/C (dose: 0.12 mg/kg/injection, schedule: Q01DX015 (ip), vehicle: water) turn out when `O=C(Nc1ccc(C2=NCCCCN2)cc1)c1ccc(C(=O)Nc2ccc(C3=NCCCCN3)cc2)c(Cl)c1` was run?
A: 101 % of control

Q: What about the T/C (dose: 0.25 mg/kg/injection, schedule: Q01DX015 (ip), vehicle: water) of the same molecule?
A: 101 % of control

Q: What about the T/C (dose: 0.5 mg/kg/injection, schedule: Q01DX015 (ip), vehicle: water) of the same molecule?
A: 100 % of control and 101 % of control

Q: What about the T/C (dose: 0.75 mg/kg/injection, schedule: Q01DX015 (ip), vehicle: water) of the same molecule?
A: 103 % of control

Q: For `COc1cc(OC)c(-c2nc3ccccc3c(=O)o2)cc1OC`, which T/C (dose: 75.0 mg/kg/injection, schedule: Q01DX009 (ip), vehicle: Klucel (hydroxypropylcellulose) (HPC)) is on record?
A: 93 % of control

Q: And the T/C (dose: 150.0 mg/kg/injection, schedule: Q01DX009 (ip), vehicle: Klucel (hydroxypropylcellulose) (HPC))?
A: 97 % of control

Q: And the T/C (dose: 300.0 mg/kg/injection, schedule: Q01DX009 (ip), vehicle: Klucel (hydroxypropylcellulose) (HPC))?
A: 101 % of control

Q: Which results are given for `O=C(CCc1ccc(C(=O)Nc2ccc(C3=NCCN3)cc2)cc1)Nc1ccc(C2=NCCN2)cc1`?
A: T/C (dose: 1.87 mg/kg/injection, schedule: Q01DX Z (ip), vehicle: carboxymethylcellulose (CMC)): 101 % of control; T/C (dose: 3.75 mg/kg/injection, schedule: Q01DX Z (ip), vehicle: carboxymethylcellulose (CMC)): 103 % of control; T/C (dose: 7.5 mg/kg/injection, schedule: Q01DX Z (ip), vehicle: carboxymethylcellulose (CMC)): 99 % of control; T/C (dose: 15.0 mg/kg/injection, schedule: Q01DX Z (ip), vehicle: carboxymethylcellulose (CMC)): 235 % of control; T/C (dose: 30.0 mg/kg/injection, schedule: Q01DX Z (ip), vehicle: carboxymethylcellulose (CMC)): 223 % of control and 295 % of control; T/C (dose: 60.0 mg/kg/injection, schedule: Q01DX Z (ip), vehicle: carboxymethylcellulose (CMC)): 239 % of control and 262 % of control

Reference: PubChem BioAssay AID248 (DTP/NCI, 2004)
